Experimental data reported in patent publication US20240277745A1, “PEMAFIBRATE AND/OR TOFOGLIFLOZIN FOR USE IN TREATING LIVER DISEASE” (KOWA COMPANY, LTD, priority 2021, published 2024).

Assays:
Type in all cases: in vivo, human
[1] = system: patients with biopsy-confirmed NAFLD and type 2 diabetes; assay: Example 3 clinical trial: liver histology (biopsy) at 48 weeks; details: for histologic improvement from baseline to 48 weeks (in words): once-daily treatment
Excerpt: (§1) 1. The biopsy consistent with the diagnosis of NAFLD 2. Type 2 diabetes, HbA1c>=7.0% • Hepatic virus infections, autoimmune hepatitis, primary biliary cirrhosis, sclerosing cholangitis, haemochromatosis, antitrypsin deficiency, Wilsons disease, history of parenteral nutrition and use of drugs known to induce steatosis or hepatic injury caused by substance abuse and or the current or past consumption of more than 20 g of alcohol daily • Hypersensitivity to or contraindication of glimepiride and tofogliflozin • None type 2 diabetes • Poorly controlled diabetes • Repeated episodes of unexplained hypoglycemia • Concomitant infection or planned surgery • Poorly controlled hypertension • Severe retinopathy • Malignancy on an active therapeutic regimen or malignancy without complete remission or cure • Severe health problems not suitable for the study • Pregnant or lactating women • Inability to participate in the study as assessed by the investigators. A total of 40 patients were randomly assigned to receive once-daily tofogliflozin at a dose of 20 mg (20 patients) or to receive once-daily glimepiride (20 patients). All 40 patients (100%) completed the trial. Demographic and baseline clinical characteristics except for gender were similar in both groups. The patients were all Japanese and type 2 diabetes. The mean age was 53.9 years, the mean body weight 82.0 kg, the mean Hemoglobin A1c 8.2%, and the mean NAS 4.45. A total of 18 patients (45%) had stage F1 fibrosis, 11 (27.5%) had stage F2, and 5 (12.5%) had stage F3. A total of 40 patients were randomly assigned to receive once-daily tofogliflozin at a dose of 20 mg (20 patients) or to receive once-daily glimepiride (20 patients). All 40 patients (100%) completed the trial. Information for the primary and confirmatory secondary outcomes related to a biopsy at week 48 was available for 39 patients (97.5%). For only one patient with a serious adverse event (2.5%).

[2] = system: patients with biopsy-confirmed NAFLD and type 2 diabetes; assay: Example 3 clinical trial: serum enzyme levels and liver test
Excerpt: as §1

[3] = system: patients with biopsy-confirmed NAFLD and type 2 diabetes; assay: Example 3 clinical trial: metabolic parameters
Excerpt: as §1

[4] = week 48, P<0.001 for the comparison with glimepiride
[5] = baseline to 48 weeks, tofogliflozin 20 mg once daily

Row | SMILES | NAS compared with baseline values (in words) ([1]; 48 weeks) | mean ballooning scores (in words) ([1]; 48 weeks) | histologic improvement from baseline to 48 weeks (in words) ([1]; 48 weeks) | FIB-4 index (in words) ([2]; tofogliflozin 20 mg once daily) | alanine aminotransferase levels (in words) ([2]; tofogliflozin 20 mg once daily) | aspartate aminotransferase levels (in words) ([2]; tofogliflozin 20 mg once daily) | gamma-glutamyl transferase, mean decrease [2, 4] [IU/L] | fibrosis score (in words) ([1]; 48 weeks) | lobular inflammation score (in words) ([1]; 48 weeks) | mean steatosis scores (in words) ([1]; 48 weeks) | percentage of steatosis (in words) ([1]; 48 weeks) | ratio of the patients with improvement in ballooning necrosis [1, 5] [%] | ratio of the patients with improvement in lobular inflammation [1, 5] [%] | ratio of the patients with improvement in steatosis [1, 5] [%] | fibrosis scores improved ([1]; before and after treatment, 48 weeks, P=0.001) [%] | BMI (in words) ([3]; tofogliflozin 20 mg once daily) | percentage of body fat (in words) ([3]; tofogliflozin 20 mg once daily) | mean body weight decrease [3, 4] [kg]
1 | CCC1=C(C)CN(C(=O)NCCc2ccc(S(=O)(=O)NC(=O)N[C@H]3CC[C@H](C)CC3)cc2)C1=O [glimepiride] | improved significantly | significantly reduced | the only histologic improvement from baseline to 48 weeks was a reduction in ballooning necrosis | – | – | – | – | – | – | – | – | – | – | – | – | – | – | –
2 | CCc1ccc(Cc2ccc3c(c2)[C@]2(OC3)OC(CO)[C@@H](O)C(O)C2O)cc1 (stereo in doubt) [tofogliflozin, 6-((4-ethylphenyl)methyl)-3′,4′,5′,6′-tetrahydro-6′-(hydroxymethyl)spiro(isobenzofuran-1(3H),2′-(2H)pyran)-3′,4′,5′-triol] | improved significantly | significantly reduced | significant histologic improvements from baseline to 48 weeks in all variables | significantly reduced | early and highly significant decrease | early and highly significant decrease | 23.8 | significantly reduced | significantly reduced | significantly reduced | significantly reduced | 55 | 50 | 65 | 60 | significant reduction | significant reduction | 4.8
